The record followed here is patent US8822449B2, “Substituted aminoindanes and analogs thereof, and the pharmaceutical use thereof” (Sanofi, priority 2008, dated 2014).

In this experiment the target is T1, sodium-proton exchanger of subtype 3 (NHE3) (Homo sapiens, UniProt P48764).
T1 construct: expressed in transfected cells
T1 sequence (P48764 26-834): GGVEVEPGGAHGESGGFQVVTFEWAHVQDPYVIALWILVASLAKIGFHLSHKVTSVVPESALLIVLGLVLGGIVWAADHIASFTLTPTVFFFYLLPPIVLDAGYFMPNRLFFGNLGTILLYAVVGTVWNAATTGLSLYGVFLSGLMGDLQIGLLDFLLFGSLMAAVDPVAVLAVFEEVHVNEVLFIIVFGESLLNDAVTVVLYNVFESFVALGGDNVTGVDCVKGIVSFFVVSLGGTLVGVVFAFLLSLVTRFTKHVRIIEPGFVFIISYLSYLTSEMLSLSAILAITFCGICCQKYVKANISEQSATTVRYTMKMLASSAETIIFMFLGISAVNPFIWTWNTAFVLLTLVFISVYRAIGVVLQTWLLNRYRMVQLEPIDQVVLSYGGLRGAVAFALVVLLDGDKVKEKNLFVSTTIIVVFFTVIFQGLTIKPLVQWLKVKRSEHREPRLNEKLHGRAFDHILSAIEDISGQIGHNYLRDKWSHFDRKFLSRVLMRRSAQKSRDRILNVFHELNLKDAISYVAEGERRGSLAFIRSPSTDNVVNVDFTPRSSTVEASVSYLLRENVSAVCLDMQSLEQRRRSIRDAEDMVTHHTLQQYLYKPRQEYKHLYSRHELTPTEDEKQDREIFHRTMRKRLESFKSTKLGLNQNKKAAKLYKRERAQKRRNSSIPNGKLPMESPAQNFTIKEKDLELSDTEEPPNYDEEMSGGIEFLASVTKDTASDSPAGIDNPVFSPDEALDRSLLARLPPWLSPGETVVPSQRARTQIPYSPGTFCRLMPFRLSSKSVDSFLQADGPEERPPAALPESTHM
Description: Recovery of intracellular pH (pHi) after acidification in LAP1 cells stably expressing NHE3 (BCECF fluorescence, FLIPR). The format is cell-based. The settings on record: LAP1 cells stably expressing NHE3; pH recovery after acidification; range 1 is % inhibition at 10 μM; read-out: Activity range (inhibitory effect on NHE3).
`N[C@H]1CCCN([C@H]2CCc3ccccc3[C@@H]2Oc2ccc(-n3cncn3)cc2)C1` (racemic) [Example 171, (S)-1-[rac-trans-(1,2)-1-(4-[1,2,4]triazol-1-ylphenoxy)-1,2,3,4-tetrahydronaphthalen-2-yl]piperidin-3-ylamine]: the IC50 lay within 1000 to 10000 nM.

As to `CS(=O)(=O)c1ccccc1O[C@H]1c2cc(Cl)cc(Cl)c2C[C@@H]1N1CCNCC1` [Example 246, 1-[(1S,2S)-4,6-dichloro-1-(2-methanesulfonylphenoxy)indan-2-yl]piperazine], the IC50 fell in the range of 1000 to 10000 nM.

Turning to `NS(=O)(=O)c1ccc(O[C@H]2c3ccccc3C[C@@H]2CN2CCCC2)c(Cl)c1` (racemic) [Example 442, 3-chloro-4-(2-pyrrolidin-1-ylmethylindan-1-yloxy)benzenesulfonamide], the IC50 lay in the range of 1000 to 10000 nM.

With `CCc1nc(C)cn1-c1ccc(O[C@H]2c3cc(Cl)cc(Cl)c3C[C@@H]2N2CC[C@@H](O)C2)cc1` [Example 712, (R)-1-{trans-(1S,2S)-4,6-Dichloro-1-[4-(2-ethyl-4-methyl-imidazol-1-yl)-phenoxy]-indan-2-yl}-pyrrolidin-3-ol], the IC50 was 1000 to 10000 nM.

Consider `Cn1ccn(-c2cc(O[C@H]3c4cc(Cl)cc(Cl)c4C[C@@H]3N3CC[C@@H](O)C3)ccc2F)c1=O` [Example 745, 1-{5-[trans-(1S,2S)-4,6-Dichloro-2-((R)-3-hydroxy-pyrrolidin-1-yl)-indan-1-yloxy]-2-fluoro-phenyl}-3-methyl-1,3-dihydro-imidazol-2-one], for which the inhibition at 10 µM lay within 20 to 50%.

Turning to `COc1ccc(C)cc1O[C@H]1c2ccccc2CC[C@@H]1N1CCC[C@@H](N)C1` (racemic) [Example 46, (R)-1-[rac-trans-(1,2)-1-(2-methoxy-5-methylphenoxy)-1,2,3,4-tetrahydronaphthalen-2-yl]piperidin-3-ylamine], the inhibition at 10 µM was 20 to 50%.

As to `c1ccc2c(c1)C[C@@H](N1C[C@H]3CNC[C@H]3C1)[C@@H]2Oc1ccc(-n2ccnc2)cc1` (racemic) [Example 7, 2-[rac-trans-(1,2)-1-(4-imidazol-1-ylphenoxy)indan-2-yl]octahydropyrrolo[3,4-c]pyrrole], the IC50 is 1000 to 10000 nM.

`Cn1ccn(-c2cccc(O[C@H]3c4cc(Cl)cc(Cl)c4C[C@@H]3N3CCNCC3)c2)c1=O` (racemic) [Example 257, 1-[3-(rac-trans-(1,2)-4,6-dichloro-2-piperazin-1-ylindan-1-yloxy)phenyl]-3-methyl-1,3-dihydroimidazol-2-one]: the IC50 was < 1000 nM.

Regarding `CN1CCN([C@H]2Cc3c(Cl)cc(Cl)cc3[C@@H]2Oc2ccc(-n3ccnc3)cc2)CC1` [Example 297, 1-[trans-(1S,2S)-4,6-dichloro-1-(4-imidazol-1-ylphenoxy)indan-2-yl]-4-methylpiperazine], the inhibition at 10 µM is 20 to 50%.

Turning to `Cn1ccn(-c2ccc(F)c(O[C@H]3c4cc(Cl)cc(F)c4C[C@@H]3N3CC[C@@H](O)C3)c2)c1=O` [Example 318, 1-{3-[(1S,2S)-6-chloro-4-fluoro-2-((R)-3-hydroxypyrrolidin-1-yl)indan-1-yloxy]-4-fluorophenyl}-3-methyl-1,3-dihydroimidazol-2-one], the IC50 was < 1000 nM.

Turning to `NC(=O)c1cc(Cl)ccc1O[C@H]1c2cc(Cl)cc(Cl)c2C[C@@H]1N1CCC1` [Example 353, 2-((1S,2S)-2-azetidin-1-yl-4,6-dichloroindan-1-yloxy)-5-chlorobenzamide], the inhibition at 10 µM lay in the range of 20 to 50%.

As for `Cc1nnc(C)n1-c1ccc(O[C@H]2c3ccccc3C[C@@H]2N2CCC[C@@H](NCCC(F)(F)F)C2)cc1` [Example 1, ((R)-1-{trans-(1S,2S)-1-[4-(3,5-dimethyl-[1,2,4]triazol-4-yl)phenoxy]indan-2-yl}piperidin-3-yl)-(3,3,3-trifluoropropyl)amine], the IC50 was in the range of 1000 to 10000 nM.

On to `CS(=O)(=O)c1ccc(O[C@H]2c3ccccc3C[C@@H]2NCc2ccccc2)cc1` (racemic) [Example 597, benzyl[1-(4-methanesulfonylphenoxy)indan-2-yl]amine], for which the inhibition at 10 µM was 20 to 50%.

For the compound `N[C@H]1CCCN([C@H]2CCc3ccccc3[C@@H]2Oc2cccc3ccc(Cl)nc23)C1` (racemic) [Example 154, (S)-1-[rac-trans-(1,2)-1-(2-chloroquinolin-8-yloxy)-1,2,3,4-tetrahydronaphthalen-2-yl]piperidin-3-ylamine], the IC50 was 1000 to 10000 nM.

Consider `COc1ccc(C)cc1O[C@@H]1c2ccccc2C[C@H]1N1CCC(CN)C1` (mixture of isomers) [Example 607, C-{1-[rac-trans-(1,2)-1-(2-methoxy-5-methylphenoxy)indan-2-yl]pyrrolidin-3-yl}methylamine], for which the IC50 lay within 1000 to 10000 nM.

Regarding `CS(=O)(=O)c1ccc(O[C@H]2c3cc(Cl)cc(Cl)c3C[C@@H]2N2CCC(S(C)(=O)=O)C2)cc1` (mixture of isomers) [Example 249, 1-[(1S,2S)-4,6-dichloro-1-(4-methanesulfonylphenoxy)indan-2-yl]-3-methanesulfonylpyrrolidine], the inhibition at 10 µM fell in the range of 20 to 50%.

As to `CS(=O)(=O)c1ccc(O[C@H]2c3cc(Cl)cc(Cl)c3C[C@@H]2N2CC[C@H](F)C2)cc1` [Example 196, (S)-1-[trans-(1S,2S)-4,6-dichloro-1-(4-methanesulfonylphenoxy)indan-2-yl]-3-fluoropyrrolidine], the IC50 was < 1000 nM.

Consider `COc1cccc(CC#N)c1O[C@H]1c2ccccc2CC[C@@H]1N1CCOCC1` (racemic) [Example 213, [3-methoxy-2-(rac-trans-(1,2)-2-morpholin-4-yl-1,2,3,4-tetrahydronaphthalen-1-yloxy)phenyl]acetonitrile], for which the inhibition at 10 µM fell in the range of 20 to 50%.

Take `CC(=O)Nc1cccc(O[C@H]2c3c(Cl)cc(Cl)cc3C[C@@H]2N(C)C)c1` (racemic) [Example 654, N-[3-(rac-trans-(1,2)-5,7-dichloro-2-dimethylaminoindan-1-yloxy)phenyl]acetamide]: the inhibition at 10 µM was 20 to 50%.

Take `N#Cc1ccc(O[C@H]2c3cc(Cl)cc(F)c3C[C@@H]2N2CC[C@@H](O)C2)c(F)c1` [Example 557, 4-[trans-(1S,2S)-6-chloro-4-fluoro-2-((R)-3-hydroxypyrrolidin-1-yl)indan-1-yloxy]-3-fluorobenzonitrile]: the IC50 lay in the range of 1000 to 10000 nM.

On to `CC(=O)Nc1cccc(O[C@H]2c3ccccc3C[C@@H]2N2CC[C@@H](CO)C2)c1` (racemic) [Example 680, N-{3-[rac-trans-(1,2)-2-((R)-3-hydroxymethylpyrrolidin-1-yl)indan-1-yloxy]phenyl}acetamide], for which the IC50 lay within 1000 to 10000 nM.

Take `N[C@@H]1CCCN([C@H]2CCc3ccccc3[C@@H]2Oc2cccc3ncccc23)C1` (racemic) [Example 89, (R)-1-[rac-trans-(1,2)-1-(quinolin-5-yloxy)-1,2,3,4-tetrahydronaphthalen-2-yl]piperidin-3-ylamine]: the IC50 lay in the range of 1000 to 10000 nM.

As to `COC(=O)c1nccn1-c1ccc(O[C@H]2c3cc(Cl)cc(Cl)c3C[C@@H]2N2CC[C@@H](O)C2)c(F)c1` [Example 740, 1-{4-[trans-(1S,2S)-4,6-Dichloro-2-((R)-3-hydroxy-pyrrolidin-1-yl)-indan-1-yloxy]-3-fluoro-phenyl}-1H-imidazole-2-carboxylic acid methyl ester], the IC50 was < 1000 nM.

Take `CC(=O)Nc1cccc(O[C@@H]2c3ccccc3C[C@H]2N2CCSCC2)c1` (racemic) [Example 642, N-[3-(rac-trans-(1,2)-2-thiomorpholin-4-ylindan-1-yloxy)phenyl]acetamide]: the IC50 lay within 1000 to 10000 nM.
